Test: Absorption of the solution of coated or uncoated riboflavin in water (coloration/release)
Assay type: physicochemical
Details: amount containing 10 mg riboflavin dissolved in 1000 ml water for 15 min; measured at 545 nm, spectrophotometer
Procedure: 80 g granulated Riboflavin was successively coated with 9% Na-alginate, 1% Ca-Chloride and 25% shellac using a WFP-mini fluid bed processor (DMR) in Wurster configuration. 89 g coated product with particle size between 250 and 1000 μm was obtained. Coating material was 35% of the particle mass, riboflavin content 50%. 20 mg of coated powder (containing 10 mg of Riboflavin) was dissolved in 1000 ml water for 15 min. Absorption of the solution was measured at 545 nm using a spectrophotometer (Genesys 20, thermo Scientific). Absorption of the solution was 0.065.
10 mg of riboflavin powder was dissolved in 1000 ml water for 15 min. Absorption of the solution was measured at 545 nm using a spectrophotometer (Genesys 20, thermo Scientific). Absorption of the solution was 0.386.
80 g granulated Riboflavin was coated with 60 g Eudragit FS30D and 10 g PIasACRYL T20 using a WFP-mini fluid bed processor (DMR) in Wurster configuration. 71 g coated product with particle size between 250 and 1000 μm was obtained. Coating material was ca. 20% of the particle mass, riboflavin content was 60%. 16.6 mg of coated powder (containing 10 mg of Riboflavin) was dissolved in 1000 ml water for 15 min. Absorption of the solution was measured at 545 nm using a spectrophotometer (Genesys 20, thermo Scientific). Absorption of the solution was 0.087.

Cc1cc2nc3c(=O)[nH]c(=O)nc-3n(C[C@H](O)[C@H](O)[C@H](O)CO)c2cc1C [Comparison Example 2, riboflavin]
Absorption of the solution: 0.386

— patent publication US20230000875A1, “MULTIPLE UNIT PELLET SYSTEM TABLET COMPRISING RIBOFLAVIN” (DSM IP ASSETS B.V., priority 2019, published 2023)
